What was measured:
[1] = tested on: NF-κB dependent transcription in recombinant HeLa reporter cells; assay: TNFα-induced activation of NF-κB dependent transcription, luciferase reporter in HeLa cells; format: cell-based; conditions: TNFα 20 ng/ml, 6 hours
Text: To test the ACE2 inhibitor GL1001 for anti-inflammatory activity relevant to IBD, effects of the compound on activation of NF-κB dependent transcription by TNFα were examined in recombinant reporter cells containing a construct with a luciferase reporter gene under control of NF-κB dependent regulatory sequences, thereby allowing detection of NF-κB dependent transcription by measuring reporter enzyme using a conventional luciferase activity assay based on detection of generated light.
In particular, HeLa cells (American Type Culture Collection) were grown in Dulbecco's modified Eagles medium (DMEM) supplemented with 10% fetal calf serum and transiently transfected with an NF-κB-luc construct (Stratagene, Inc.), as follows (with all incubation steps at 37 C unless otherwise indicated). Cells were seeded and grown to about 70% confluency in a 10 cm cell culture dish. Plasmid DNA (10 μg) was added to 1 ml serum free DMEM media in a tube. Fugene 6 transfection reagent (30 μl) (Roche) was then pipetted slowly into the tube and the contents were gently mixed by inversion. The mixture was incubated at room temperature for 15 minutes and then added dropwise to cells in one 10 cm dish. […] Bioluminescence was then measured using a Veritas luminometer (Turner BioSystems). […]

[2] = tested on: LPS induced NF-κB dependent transcription; assay: LPS induced NF-κB dependent transcription in extracted organs of NF-κB:Luc mice (luciferase lysate assay); format: in vivo; conditions: 0.5 mg/kg LPS and GL1001 at 30 mg/1 g vs LPS alone (FIG. 6)
Text: For luciferase assays, organs were extracted and snap frozen in liquid nitrogen. All tissue samples were placed in lysis buffer with inhibitors (Passive Lysis Buffer (Promega) and Complete Mini Protease Inhibitor Cocktail (Roche, Indianapolis, Ind.)), and were homogenized using a tissue homogenizer (Handishear, Hand-held homogenizer, VirTis, Gardiner, N.Y.). Tissue homogenates were centrifuged and clarified lysates were used for luminometer assays and western blots. For the luminometer assays, Luciferase Assay Substrate (Luciferase Assay System, Promega) was prepared as indicated by the manufacturer and placed in disposable cuvettes. […] Background luminescence readings were obtained and the background readings were subtracted from the luminescent data. Protein concentrations were determined using the BCA Protein Assay Kit (Pierce, Rockford, Ill.) following the manufacturer's protocols and analyzed using a VERSAmax tunable microplate reader and associated Softmax Pro version 3.1.2 software (Molecular Devices, Sunnyvale Calif.). The luminescence for each of the protein lysates was calculated as arbitrary units of light per microgram of protein. […]
GL1001 was further tested for in vivo anti-inflammatory activity by examining its effects on bacterial LPS induced NF-κB dependent transcription, in NF-κB:Luc mice. […] Luciferase signal was quantitated from several regions of interest. […]

[3] = tested on: activator protein-1 (AP-1); assay: In vivo basal reporter luciferase expression in AP-1:Luc mice; conditions: data not shown
[4] = tested on: basal NF-κB dependent transcription; assay: In vivo basal NF-κB dependent transcription, abdominal imaging of NF-κB:Luc mice; conditions: 300 mg/kg subcutaneous, 4 hours; p<0.01
Text: GL1001 was further tested for in vivo anti-inflammatory activity by examining its effects on basal levels of NF-κB dependent transcription in mice engineered in the germline with a construct containing an NF-κB enhancer linked to a luciferase gene (i.e., NF-κB:Luc mice), such that this NF-κB reporter construct is present in all cells of the mice.
More particularly, transgenic NF-κB:Luc mice were generated using three NF-κB response elements from the Igκ light chain promoter fused to a firefly luciferase gene as described by Carlsen et al. (2002) J. Immunol. 168:1441-1446. Pronuclear microinjection of purified construct DNA was used to generate transgenic founders in the C57BL/6 XCBA/J background. Founders were subsequently back crossed to the C57BL/6 albino background. […] Signal data were also quantitated and archived using the Living Image® software. Photons of light were quantitated using an oval region of interest (ROI) of varying sizes depending on the procedure, as described further below.
To test for in vivo effects of GL1001 on basal levels of NF-κB dependent transcription, male NF-κB:Luc mice were subjected to quantitative in vivo imaging of the abdominal area (using a fixed ROI of 2.76×3.7 cm) as described above, immediately before, and at 2, […]

DSS-induced colitis = DSS-induced colitis in Balb/c mice, Example 7; format: in vivo
Experimental: A study was designed with six groups of Balb/c mice: naïve control, DSS followed by vehicle, DSS followed by GL1001 30 mg/kg/day, DSS followed by GL1001 100 mg/kg/day, DSS followed by GL1001 300 mg/kg/day, and DSS followed by sulfasalazine 150 mg/kg/day. Administration of DSS was via drinking water, from day 1 to day 6 of the study. […] Administration of vehicle, GL1001 and sulfasalazine was subcutaneous, twice daily, from day 6 until termination of the study (day 16). Body weight of each animal was measured at days 1, 3 and 5 (pre-initiation of GL1001 or sulfasalazine treatment) and at days 7, 9, 11 and 13 (post-initiation of GL1001 or sulfasalazine treatment). On these same days, disease activity measurements were recorded, including: • (a) rectal prolapse (0=no prolapse, 1=partial prolapse, 2=moderate prolapse, 3=full prolapse); • (b) stool consistency (0=solid pellet, 1=semi-solid, 2=soft stool, 3=diarrhea); and • (c) fecal occult blood (0=no blood present, 1=occult blood, 2=gross blood). At termination of the study, colon length was determined and histological analysis was conducted as in Example 6.

Crohn's disease = conditions: cited from earlier work
NF-κB activity = conditions: at least in CD; cited from earlier work
ulcerative colitis = conditions: 5 mg/kg infusions; cited from earlier work
[5] = after a single dose, 5 mg/kg infusion

CC(C)C[C@H](N[C@@H](Cc1cncn1Cc1cc(Cl)cc(Cl)c1)C(=O)O)C(=O)O [GL1001, (S,S)-2-[1-carboxy-2-[3-(3,5-dichlorobenzyl)-3H-imidazol-4-yl]-ethylamino]-4-methylpentanoic acid]
inhibition of TNFα induced activation of NF-κB dependent transcription ([1]; 8 nM): over 80% | maximal inhibition of TNFα induced activation of NF-κB dependent transcription ([1]; 0.2 μM): over 95% | reduction of LPS induced NF-κB-dependent transcription in stomach [2]: about 37 fold | effect on basal in vivo levels of reporter luciferase expression in AP-1:Luc mice [3]: no significant effect | inhibition of basal in vivo levels of NF-κB dependent transcription in abdominal ROI [4]: over 40%

O=C(O)c1cc(/N=N/c2ccc(S(=O)(=O)Nc3ccccn3)cc2)ccc1O [sulfasalazine]
reduction in colon length (DSS-induced colitis; sulfasalazine 150 mg/kg b.i.d. subcutaneous (FIG. 19)): inhibits reduction | distal colon inflammation score (DSS-induced colitis; sulfasalazine 150 mg/kg b.i.d. subcutaneous (FIG. 20)): reduces | distal colon crypt score (DSS-induced colitis; sulfasalazine 150 mg/kg b.i.d. subcutaneous (FIG. 21)): reduces | distal colon total histopathology score (DSS-induced colitis; sulfasalazine 150 mg/kg b.i.d. subcutaneous (FIG. 23)): reduces | stool consistency (DSS-induced colitis; sulfasalazine 150 mg/kg b.i.d. subcutaneous, day 7 (FIG. 17)): No significant effect | fecal occult blood (DSS-induced colitis; sulfasalazine 150 mg/kg b.i.d. subcutaneous, day 7 (FIG. 18)): reduces | percentage weight loss (DSS-induced colitis; sulfasalazine 150 mg/kg b.i.d. subcutaneous, day 9 (FIG. 15)): No significant effect | rectal prolapse (DSS-induced colitis; sulfasalazine 150 mg/kg b.i.d. subcutaneous, day 9 (FIG. 16)): reduces

Infliximab: anti-TNFα monoclonal antibody
induction of remission rate in CD (Crohn's disease; [5]): 50% | response rate in CD (Crohn's disease; [5]): 80% | patients in whom the fistula responds (closes), fistulizing CD (Crohn's disease; human, in vivo): 68% | patients who develop an abscess, fistulizing CD (Crohn's disease; human, in vivo): 12% | NF-κB activity (NF-κB activity): decrease | response rates in UC (ulcerative colitis): 50-70%

Reference: patent US7842709B2, “Method for treating inflammatory diseases of the digestive tract” (Ore Pharmaceuticals Inc., priority 2006, dated 2010)
